# Measurements as given in ChEMBL document CHEMBL1128921, “Mechanism-based inactivation of serine proteases by dichlorocyclopropane fused lactone derivatives” (Bioorg Med Chem Lett, 1996).
# What was measured:
# [1] = target: T1, Chymotrypsin-like elastase family member 2A (Sus scrofa) (UniProt P08419); assay: Compound was evaluated for inhibitory activity against PP elastase at a concentration of 1.2 x 10e-3; NI = No inactivation
# T1 sequence (whole entry): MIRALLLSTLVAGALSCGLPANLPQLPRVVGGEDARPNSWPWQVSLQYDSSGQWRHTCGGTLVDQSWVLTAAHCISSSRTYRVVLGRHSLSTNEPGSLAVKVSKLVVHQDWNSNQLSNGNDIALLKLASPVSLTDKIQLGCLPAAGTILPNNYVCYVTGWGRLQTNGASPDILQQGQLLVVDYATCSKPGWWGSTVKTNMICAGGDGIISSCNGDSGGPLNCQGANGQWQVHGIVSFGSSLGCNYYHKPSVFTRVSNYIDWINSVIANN
# [2] = target: Chymotrypsinogen A (Bos taurus) (UniProt P00766); assay: Compound was evaluated for inhibitory activity against alpha-chymotrypsin at a concentration of 5.0 x 10e-4
# [3] = target: T1, Chymotrypsin-like elastase family member 2A (Sus scrofa); assay: Compound was evaluated for inhibitory activity against PP elastase at a concentration of 2.0 x 10e-5; NI = No inactivation
# [4] = target: Chymotrypsinogen A (Bos taurus) (UniProt P00766); assay: Compound was evaluated for inhibitory activity against alpha-chymotrypsin at a concentration of 7.5 x 10e-6
# [5] = target: Chymotrypsinogen A (Bos taurus) (UniProt P00766); assay: Compound was evaluated for inhibitory activity against alpha-chymotrypsin at a concentration of 5.0 x 10e-4; NI = No inactivation
# [6] = target: Chymotrypsinogen A (Bos taurus) (UniProt P00766); assay: Compound was evaluated for inhibitory activity against alpha-chymotrypsin at a concentration of 1.95 x 10e-2; NI = No inactivation
# [7] = target: T1, Chymotrypsin-like elastase family member 2A (Sus scrofa); assay: Compound was evaluated for inhibitory activity against PP elastase at a concentration of 1.95 x 10e-2; NI = No inactivation
# [8] = target: Chymotrypsinogen A (Bos taurus) (UniProt P00766); assay: Compound was evaluated for inhibitory activity against alpha-chymotrypsin at a concentration of 6.0 x 10e-3
smiles,measurement,setting,value
C[C@H](NC(=O)CCC(=O)O)C(=O)N[C@@H](C)C(=O)N[C@@H](Cc1ccccc1)C(=O)OC1CC1(Cl)Cl (stereo partly drawn),K obs / 1,[1],No inactivation
same,K obs / 1,[2],0.337 M⁻¹ s⁻¹
O=C1OC2C(CC1Cc1ccccc1)C2(Cl)Cl (stereo not drawn),K obs / 1,[3],No inactivation
same,K obs / 1,[4],54 M⁻¹ s⁻¹
O=C1OCCCC1Cc1ccccc1 (stereo not drawn),K obs / 1,[5],No inactivation
O=C1CCC2C(O1)C2(Cl)Cl (stereo not drawn),K obs / 1,[6],No inactivation
same,K obs / 1,[7],No inactivation
O=C(O)CCC(=O)N[C@@H](Cc1ccccc1)C(=O)OC1CC1(Cl)Cl (stereo partly drawn),K obs / 1,[8],0.054 M⁻¹ s⁻¹
